According to article PMC4919791, “Effect of curcumin analogs onα-synuclein aggregation and cytotoxicity” (Scientific Reports, 2016):

Tests used:
[1] = target: T1, preformed α-Syn fibrils (Homo sapiens, UniProt P37840); test: Calcein-AM/EthD-1 staining, preformed α-Syn fibrils with analogs; format: cell-based; conditions: SH-SY5Y cells
T1 construct: made in house; host or cells: Escherichia coli BL21
Experimental: Previously it has been shown that curcumin decreases the toxicity of α-Syn amyloid fibrils by reducing the exposed hydrophobic surfaces. To delineate whether curcumin analogs can decrease the toxicity of preformed α-Syn fibrils, we performed cell viability assay. For this, 10-days incubated α-Syn solution was centrifuged (fibril formation was confirmed by electron microscopy (EM)) and the pelleted fibrils were then re-dissolved in same volume of 20 mM MES buffer (pH 6.0, 0.01% NaN3). The concentration of the fibrils was determined by subtraction of supernatant concentration from the original concentration of α-Syn kept for fibrillation. […] After incubation, we measured the effect of curcumin analogs on the toxicity of preformed α-Syn amyloid fibrils by MTT reduction assay on SH-SY5Y cells. […]
(§1) For this assay, SH-SY5Y cells were seeded in 96 well plate and incubated with identical concentrations of oligomers/fibrils (as used in MTT assay) in absence and presence of curcumin and its analogs for 36 h in 5% CO2 incubator at 37 °C. […] Calcein-AM/Ethidium homodimer-1 signal was then checked and imaged with an inverted fluorescence microscope (Leica DMi8). […] The free calcein emits strong fluorescence signal at ~535 nm, which could be easily observed in the green channel of a microscope. […]

[2] = target: T2, preformed α-Syn amyloid fibrils (Homo sapiens, UniProt P37840); test: TEM of preformed α-Syn fibrils with analogs; format: biochemical; conditions: after 48 h incubation with analog
T2 construct: made in house; host or cells: Escherichia coli BL21
Experimental: The samples were then washed thrice with autoclaved MQ. The samples were then stained with 10 μl of uranyl formate 1% (w/v) and incubated in dark for 10 min. The EM image of each sample was acquired at 120 kV with magnifications in the range of 26,000X and 43,000X using a transmission electron microscope (TECNAI12 D312 FEI, Netherlands).

[3] = target: T3, α-Syn oligomers (Homo sapiens, UniProt P37840); test: Calcein-AM/EthD-1 staining, α-Syn oligomers with C1/C6; format: cell-based; conditions: SH-SY5Y cells
T3 construct: made in house; host or cells: Escherichia coli BL21
Description: It has been shown that α-Syn mutants that form oligomers preferentially are more toxic and kill dopaminergic neurons in animal models as compared to fibril forming mutants. Therefore, compounds that effectively reduce the toxicity of oligomers could be beneficial for the treatment of PD. In the present study, we tested the effect of curcumin and its analogs on the toxicity, hydrophobic exposure and morphology of α-Syn oligomers isolated using size exclusion chromatography (SEC). The toxicity of α-Syn oligomers in presence and absence of curcumin/analogs were initially tested using MTT assay. […] As previously it has been proposed that curcumin reduces the oligomers toxicity by altering their exposed hydrophobic surface, we also measured the hydrophobic surface exposure of preformed α-Syn oligomers incubated with curcumin and its analogs.
as §1

[4] = target: T3, α-Syn oligomers; test: TEM of α-Syn oligomers with C1/C6; format: biochemical
Description: It has been shown that α-Syn mutants that form oligomers preferentially are more toxic and kill dopaminergic neurons in animal models as compared to fibril forming mutants. Therefore, compounds that effectively reduce the toxicity of oligomers could be beneficial for the treatment of PD. In the present study, we tested the effect of curcumin and its analogs on the toxicity, hydrophobic exposure and morphology of α-Syn oligomers isolated using size exclusion chromatography (SEC). The toxicity of α-Syn oligomers in presence and absence of curcumin/analogs were initially tested using MTT assay. […] To further validate the effectiveness of C6 to reduce the cytotoxicity of α-Syn oligomers, we also performed LDH cytotoxicity assay and Calcein-AM/Ethidium homodimer-1 staining. […] As previously it has been proposed that curcumin reduces the oligomers toxicity by altering their exposed hydrophobic surface, we also measured the hydrophobic surface exposure of preformed α-Syn oligomers incubated with curcumin and its analogs.
5 μl of various species of α-Syn (50 μM) incubated in absence and presence of curcumin and its analogs were spotted on carbon coated formavar grid and air dried for 10 min. The samples were then washed thrice with autoclaved MQ. The samples were then stained with 10 μl of uranyl formate 1% (w/v) and incubated in dark for 10 min. […]

[5] = target: T4, α-Syn fibrils (Homo sapiens, UniProt P37840); test: Binding affinity to α-Syn fibrils by curcumin analog fluorescence
T4 construct: made in house; host or cells: Escherichia coli BL21
Experimental: To estimate the comparative binding affinity of curcumin analogs to the α-Syn fibrils and oligomers, curcumin fluorescence assay was performed for each analog. For binding study with fibrils, 10 μM of α-Syn fibrils were incubated in presence of varying concentration of curcumin and its analogs (0.25 μM to 30 μM) for 30 min at RT in dark and then fluorescence spectra were recorded. The normalized fluorescence intensity of different concentrations of curcumin/analogs at their corresponding λmax was plotted to obtain their respective saturation plots (Figs 6A and S7). From the saturation plot, dissociation constant (Kd) was calculated (see method section).
The binding of curcumin/analogs to α-Syn fibrils were determined based on change in fluorescence intensity. For this study, 10 μM α-Syn fibrils were incubated in presence and absence of varying concentration of curcumin/analogs (0.25 μM to 30 μM) for 30 min at RT in dark. Immediately after incubation, fluorescence study was performed (for the excitation and emission ranges for each compounds, see Fig. S1). Experiments were performed using FluoroMax-4 spectrofluorometer (HORIBA JobinYvon) with excitation and emission slit widths of 5 nm. The maximum fluorescence intensity for curcumin/analogs was normalized with respect to that of the lowest concentration of each analog. The normalized fluorescence intensity was plotted against increasing concentration of curcumin/analogs and the dissociation constant was determined using the equation
where, “ΔF” is the change in the fluorescence intensity of curcumin/analogs, “ΔFmax” is the change in the fluorescence intensity at saturation point and “L”is the concentration of curcumin/analogs. The data were analyzed in Graphpad Prism software according to established method as used previously. Similarly, the dissociation constant of curcumin and its analogs with preformed α-Syn oligomers and monomers (obtained from SEC) were also determined.

Calcein-AM/EthD-1 staining with preformed α-Syn fibrils [1]: less nuclear staining by EthD-1 | fibril morphology/thickness of preformed α-Syn fibrils (TEM, words) [2]: clustering was more | ethidium homodimer staining with α-Syn oligomers [3]: less ethidium homodimer staining | morphology of α-Syn oligomers (TEM) [4]: significantly altered their morphology | Kd ([5]; 10 μM fibrils, 0.25–30 μM analog, 30 min RT, read-out: dissociation constant (Kd) for α-Syn fibrils): 482 ± 70 nM | binding with preformed α-Syn fibrils ([5]; compound fluorescence): highest binding
SMILES: COc1cc(/C=C/C(=O)CC(=O)/C=C/c2ccc(OCc3ccccc3)c(OC)c2)ccc1OCc1ccccc1 [C6]
